Test results: PubChem BioAssay AID256 (DTP/NCI, 2004)
Where “and” joins values, the source holds several entries; their conditions need not be identical. Identical values can stand only once. Toxic doses and inconclusive results are not listed.

Test system: CD2F1 mice, L1210 leukemia ip, survival T/C
Test: NCI In Vivo Anticancer Drug Screen. Data for tumor model L1210 Leukemia (intraperitoneal) in CD2F1 (CDF1) mice
Settings: higher = longer survival
Procedure, shortened: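 Tumor-bearing mice (transplanted tumor) were split into treated and vehicle control groups, and the measured endpoint of each treated group was divided by that of its vehicle controls.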

[1] = endpoint: mean survival time, dose: 100.0 mg/kg/injection, schedule: Q01DX001 (ip), vehicle: saline with Tween-80
[2] = endpoint: mean survival time, dose: 100.0 mg/kg/injection, schedule: Q01DX009 (ip), vehicle: saline with Tween-80
[3] = endpoint: mean survival time, dose: 200.0 mg/kg/injection, schedule: Q01DX009 (ip), vehicle: saline with Tween-80
[4] = endpoint: mean survival time, dose: 400.0 mg/kg/injection, schedule: Q01DX009 (ip), vehicle: saline with Tween-80
[5] = endpoint: mean survival time, dose: 50.0 mg/kg/injection, schedule: Q01DX009 (ip), vehicle: saline with Tween-80
[6] = endpoint: mean survival time, dose: 50.0 mg/kg/injection, schedule: Q04DX003 (ip), vehicle: Klucel (hydroxypropylcellulose) (HPC)
[7] = endpoint: mean survival time, dose: 100.0 mg/kg/injection, schedule: Q04DX003 (ip), vehicle: Klucel (hydroxypropylcellulose) (HPC)
[8] = endpoint: mean survival time, dose: 200.0 mg/kg/injection, schedule: Q04DX003 (ip), vehicle: Klucel (hydroxypropylcellulose) (HPC)
[9] = endpoint: mean survival time, dose: 100.0 mg/kg/injection, schedule: Q04DX003 (ip), vehicle: saline with Tween-80
[10] = endpoint: mean survival time, dose: 200.0 mg/kg/injection, schedule: Q04DX003 (ip), vehicle: saline with Tween-80
[11] = endpoint: mean survival time, dose: 400.0 mg/kg/injection, schedule: Q04DX003 (ip), vehicle: saline with Tween-80
[12] = endpoint: mean survival time, dose: 200.0 mg/kg/injection, schedule: Q01DX001 (ip), vehicle: saline with Tween-80
[13] = endpoint: mean survival time, dose: 400.0 mg/kg/injection, schedule: Q01DX001 (ip), vehicle: saline with Tween-80
[14] = endpoint: mean survival time, dose: 100.0 mg/kg/injection, schedule: Q01DX001 (ip), vehicle: saline
[15] = endpoint: mean survival time, dose: 200.0 mg/kg/injection, schedule: Q01DX001 (ip), vehicle: saline
[16] = endpoint: mean survival time, dose: 400.0 mg/kg/injection, schedule: Q01DX001 (ip), vehicle: saline
[17] = endpoint: mean survival time, dose: 50.0 mg/kg/injection, schedule: Q04DX003 (ip), vehicle: saline with Tween-80
[18] = endpoint: mean survival time, dose: 100.0 mg/kg/injection, schedule: Q04DX002 (ip), vehicle: saline with Tween-80
[19] = endpoint: mean survival time, dose: 200.0 mg/kg/injection, schedule: Q04DX002 (ip), vehicle: saline with Tween-80
[20] = endpoint: mean survival time, dose: 400.0 mg/kg/injection, schedule: Q04DX002 (ip), vehicle: saline with Tween-80
[21] = endpoint: mean survival time, dose: 50.0 mg/kg/injection, schedule: Q04DX002 (ip), vehicle: saline with Tween-80

O=Cc1cc([N+](=O)[O-])cc(CCl)c1O
T/C (endpoint: mean survival time, dose: 25.0 mg/kg/injection, schedule: Q01DX009 (ip), vehicle: Klucel (hydroxypropylcellulose) (HPC)): 95 % of control
T/C (endpoint: mean survival time, dose: 50.0 mg/kg/injection, schedule: Q01DX009 (ip), vehicle: Klucel (hydroxypropylcellulose) (HPC)): 95 % of control
T/C (endpoint: mean survival time, dose: 100.0 mg/kg/injection, schedule: Q01DX009 (ip), vehicle: Klucel (hydroxypropylcellulose) (HPC)): 101 % of control

COc1ccc(-n2cnc3c(=O)[nH]c(N)nc32)cc1
T/C (endpoint: mean survival time, dose: 25.0 mg/kg/injection, schedule: Q01DX001 (ip), vehicle: saline with Tween-80): 95 % of control
T/C (endpoint: mean survival time, dose: 50.0 mg/kg/injection, schedule: Q01DX001 (ip), vehicle: saline with Tween-80): 92 % of control
T/C [1]: 95 % of control

NCC(Cc1ccc(O)cc1)P(=O)(O)O (centres undefined)
T/C [2]: 102 % of control
T/C [3]: 105 % of control
T/C [4]: 93 % of control

NC(=O)c1ncn(C2CC3[O][Sn]([c]4ccccc4)([c]4ccccc4)[O]CC3O2)n1 (centres undefined)
T/C (endpoint: mean survival time, dose: 12.5 mg/kg/injection, schedule: Q01DX005 (ip), vehicle: distilled water + Tween-80): 101 % of control
T/C (endpoint: mean survival time, dose: 25.0 mg/kg/injection, schedule: Q01DX005 (ip), vehicle: distilled water + Tween-80): 97 % of control
T/C (endpoint: mean survival time, dose: 100.0 mg/kg/injection, schedule: Q01DX005 (ip), vehicle: distilled water + Tween-80): 88 % of control
T/C (endpoint: mean survival time, dose: 200.0 mg/kg/injection, schedule: Q01DX005 (ip), vehicle: distilled water + Tween-80): 95 % of control

O=C(CCBr)NCNC(=O)CCBr
T/C [3]: 152 % of control
T/C [4]: 101 % of control

C[CH2][Pb]([CH2]C)([CH2]C)[O]C(=O)c1cc(-c2ccccc2)nc2ccccc12
T/C (endpoint: mean survival time, dose: 1.56 mg/kg/injection, schedule: Q01DX009 (ip), vehicle: saline with Tween-80): 98 % of control
T/C (endpoint: mean survival time, dose: 3.13 mg/kg/injection, schedule: Q01DX009 (ip), vehicle: saline with Tween-80): 98 % of control
T/C (endpoint: mean survival time, dose: 6.25 mg/kg/injection, schedule: Q01DX009 (ip), vehicle: saline with Tween-80): 91 % of control and 104 % of control

CN(C)NC(=O)/C=C\C(=O)O
T/C (endpoint: mean survival time, dose: 100.0 mg/kg/injection, schedule: Q01DX009 (ip), vehicle: saline): 101 % of control
T/C (endpoint: mean survival time, dose: 200.0 mg/kg/injection, schedule: Q01DX009 (ip), vehicle: saline): 101 % of control

ClC1CCC[N-]C1.ClC1CCC[N-]C1.[Cl][Pt+2][Cl] (centres undefined)
T/C (endpoint: mean survival time, dose: 0.78 mg/kg/injection, schedule: Q01DX009 (ip), vehicle: saline): 103 % of control
T/C (endpoint: mean survival time, dose: 1.56 mg/kg/injection, schedule: Q01DX009 (ip), vehicle: saline): 94 % of control
T/C (endpoint: mean survival time, dose: 3.13 mg/kg/injection, schedule: Q01DX009 (ip), vehicle: saline): 102 % of control
T/C (endpoint: mean survival time, dose: 6.25 mg/kg/injection, schedule: Q01DX009 (ip), vehicle: saline): 96 % of control
T/C (endpoint: mean survival time, dose: 12.5 mg/kg/injection, schedule: Q01DX009 (ip), vehicle: saline): 89 % of control
T/C [5]: 108 % of control
T/C [2]: 95 % of control

CCCCNC(=S)Nc1ccccc1
T/C [5]: 100 % of control
T/C [2]: 105 % of control
T/C [3]: 86 % of control

CC(=O)N(C)N=Nc1ccc(Cl)cc1
T/C (endpoint: mean survival time, dose: 25.0 mg/kg/injection, schedule: Q04DX003 (ip), vehicle: Klucel (hydroxypropylcellulose) (HPC)): 109 % of control
T/C [6]: 105 % of control
T/C [7]: 103 % of control
T/C [8]: 100 % of control

O=C1N(CCO)CCN1/N=C/c1ccc([N+](=O)[O-])o1
T/C [9]: 93 % of control
T/C [10]: 102 % of control
T/C [11]: 95 % of control

CC(=O)N(C)N=Nc1ccc(C(F)(F)F)cc1
T/C [6]: 97 % of control
T/C [7]: 102 % of control
T/C [8]: 96 % of control
T/C (endpoint: mean survival time, dose: 400.0 mg/kg/injection, schedule: Q04DX003 (ip), vehicle: Klucel (hydroxypropylcellulose) (HPC)): 105 % of control

Cc1ccc(C(=O)C2OC2c2ccccc2)cc1 (centres undefined)
T/C [1]: 94 % of control
T/C [12]: 100 % of control
T/C [13]: 94 % of control

CCCCCCC[CH2][Sn]1([CH2]CCCCCCC)[O]C2C(CO)OC(n3ccc(N)nc3=O)C2[O]1 (centres undefined)
T/C (endpoint: mean survival time, dose: 12.5 mg/kg/injection, schedule: Q01DX005 (ip), vehicle: other): 103 % of control
T/C (endpoint: mean survival time, dose: 25.0 mg/kg/injection, schedule: Q01DX005 (ip), vehicle: other): 97 % of control
T/C (endpoint: mean survival time, dose: 50.0 mg/kg/injection, schedule: Q01DX005 (ip), vehicle: other): 100 % of control
T/C (endpoint: mean survival time, dose: 100.0 mg/kg/injection, schedule: Q01DX005 (ip), vehicle: other): 109 % of control

NC(=O)c1ccccc1C(=O)O
T/C [14]: 105 % of control
T/C [15]: 102 % of control
T/C [16]: 94 % of control

O=C(O)Cc1ccccc1[N+](=O)[O-]
T/C [1]: 106 % of control
T/C [12]: 101 % of control
T/C [13]: 101 % of control

O=S(=O)(Cl)C(Cl)(Cl)Cl
T/C (endpoint: mean survival time, dose: 25.0 mg/kg/injection, schedule: Q01DX009 (ip), vehicle: saline with Tween-80): 96 % of control
T/C [5]: 102 % of control
T/C [17]: 97 % of control
T/C [2]: 95 % of control
T/C [9]: 94 % of control

CC(=O)NCNC(C)=O
T/C [14]: 100 % of control
T/C [15]: 93 % of control
T/C [16]: 100 % of control

O/N=C1/CCCC/C1=C/c1ccccc1
T/C [2]: 103 % of control
T/C [3]: 97 % of control
T/C [4]: 97 % of control

c1cc[c]([Sb]([c]2ccccc2)[c]2ccccc2)cc1
T/C (endpoint: mean survival time, dose: 20.0 mg/kg/injection, schedule: Q04DX003 (ip), vehicle: saline sonified): 97 % of control
T/C (endpoint: mean survival time, dose: 40.0 mg/kg/injection, schedule: Q04DX003 (ip), vehicle: saline sonified): 94 % of control

CNC1CCCCCC1
T/C (endpoint: mean survival time, dose: 75.0 mg/kg/injection, schedule: Q01DX001 (ip), vehicle: saline): 101 % of control
T/C (endpoint: mean survival time, dose: 150.0 mg/kg/injection, schedule: Q01DX001 (ip), vehicle: saline): 101 % of control

O=C(O)C(=O)O.[NH-]CC1CCCC[N-]1.[Pt+2] (centres undefined)
T/C (endpoint: mean survival time, dose: 12.5 mg/kg/injection, schedule: Q04DX003 (ip), vehicle: saline with Tween-80): 164 % of control
T/C (endpoint: mean survival time, dose: 25.0 mg/kg/injection, schedule: Q04DX003 (ip), vehicle: saline with Tween-80): 201 % of control
T/C [17]: 238 % of control

CCCCCCCSc1nc2ccccc2s1
T/C [18]: 95 % of control
T/C [19]: 98 % of control
T/C [20]: 90 % of control

C=C(Cc1ccccc1)C(=O)O
T/C (endpoint: mean survival time, dose: 25.0 mg/kg/injection, schedule: Q04DX002 (ip), vehicle: saline with Tween-80): 92 % of control
T/C [21]: 92 % of control
T/C [18]: 95 % of control

O=C(COc1ccc(Cl)cc1)Oc1c(Cl)cc(Cl)cc1Cl
T/C [18]: 98 % of control
T/C [19]: 98 % of control
T/C [20]: 94 % of control

CC(CC1CC=CCC1)C(=O)c1ccccc1 (centres undefined)
T/C [21]: 100 % of control
T/C [18]: 100 % of control
T/C [19]: 93 % of control
T/C [20]: 89 % of control

CCOC(=O)c1c([N+](=O)[O-])cnn1C1OC(COC(C)=O)C(OC(C)=O)C1OC(C)=O (centres undefined)
T/C (endpoint: median survival time, dose: 8.75 mg/kg/injection, schedule: Q01DX005 (ip), vehicle: distilled water + Tween-80): 104 % of control
T/C (endpoint: median survival time, dose: 17.5 mg/kg/injection, schedule: Q01DX005 (ip), vehicle: distilled water + Tween-80): 107 % of control
T/C (endpoint: median survival time, dose: 35.0 mg/kg/injection, schedule: Q01DX005 (ip), vehicle: distilled water + Tween-80): 96 % of control
T/C (endpoint: median survival time, dose: 70.0 mg/kg/injection, schedule: Q01DX005 (ip), vehicle: distilled water + Tween-80): 101 % of control
T/C (endpoint: median survival time, dose: 140.0 mg/kg/injection, schedule: Q01DX005 (ip), vehicle: distilled water + Tween-80): 101 % of control

CCOC(=O)c1cc(CO)nc2c(Cl)cc(Cl)cc12
T/C [2]: 91 % of control
T/C [9]: 93 % of control
T/C [3]: 90 % of control
T/C [10]: 90 % of control
T/C [4]: 90 % of control
T/C [11]: 93 % of control

O=C(OCCO)c1oc2ccccc2c1OCCO
T/C [1]: 98 % of control
T/C [12]: 98 % of control
T/C [13]: 102 % of control

N#Cc1nccnc1Cl
T/C [9]: 96 % of control
T/C [10]: 86 % of control

COc1cc(/C=C/c2nc3ccccc3nc2/C=C/c2cc(OC)c(OC)c(OC)c2)cc(OC)c1OC
T/C [3]: 94 % of control
T/C [4]: 100 % of control
T/C [11]: 93 % of control
